Source: US20050222048A1, “Novel synthetic C-glycolipids, their synthesis and use to treat infections, cancer and autoimmune diseases” (The Research Foundation of The City University of New York, priority 2004, published 2005)

Tested on: IFN-γ
Experiment: Serum IFN-γ concentration by sandwich ELISA after i.v. injection of glycolipid into mice
Format: in vivo
Settings: BALB/c mice, 1 μg i.v., ELISA at 2, 6, 12 and 24 hours post-injection
Procedure: α-Galactosylceramide (α-GalCer, KRN or KRN7000) was synthesized by Kirin Brewery (Gumma, Japan). The stock solution was dissolved in a 0.5% polysorbate −20 (Nikko Chemical, Tokyo), 0.9% NaCl solution at a concentration of 200 μg/ml, and diluted in PBS just before injection into mice. α-C-galactosylceramide (α-C-GalCer, CRONY or CRONY-101) was synthesized as described in commonly owned U.S. patent application Ser. No. 10/462,211. Compounds […], GCK75(a) and GCK75(b) were synthesized as described herein. The stock solution was originally dissolved in 100% DMSO at a concentration of 1 mg/ml. Before injection into mice, it was diluted to a concentration of 200 μg/ml in a 0.5% polysorbate-20 (Nikko Chemical, Tokyo), 0.9% NaCl solution, and diluted in PBS just before injection into mice. […]
The serum concentrations of IFN-γ were measured at 2, 6, 12, and 24 hours after treatment with α-GalCer, α-C-GalCer, compound […], GCK75(a), GCK75(b), or nothing using a sandwich ELISA (e-bioscience, San Diego).
To compare the timing of immunological responses to α-GalCer (KRN), α-C-GalCer (CRONY), GCM11i, GCK75(a), and GCK75(b), mice were injected intravenously (i.v.) with 1 μg of each of the glycolipids or with nothing. At 2, 6, 12, and 24 hours post-injection, IFN-γ concentrations in the sera were measured by ELISA.

α-C-galactosylceramide [α-C-GalCer]
time of peak IFN-γ response in the sera post-injection: 24 h
